Source: publication PMC4704819, “Honey Bee Allatostatins Target Galanin/Somatostatin-Like Receptors and Modulate Learning: A Conserved Function?” (PLoS ONE, 2016)
“Also recorded” adds a separate entry of the source. Where a SMILES comes first, the peptide text is derived from it. Bridges are numbered along the chain shown (N, C = ends).

How the values were obtained:
[1] = system: honey bees (Apis mellifera); assay: Appetitive olfactory learning (conditioning of proboscis extension reflex); assay type: in vivo; details: for change of conditioned responses in last conditioning trial vs vehicle (GLM coefficient ± standard error): ~200 nl into head haemolymph 1 h before conditioning; for effect on olfactory learning performance, in words: injected into the head before conditioning, range of concentrations, vs vehicle-injected controls, Fig 9
Experimental: For behavioral experiments, bees departing from the hive (mostly foragers) were chosen as they usually show good motivation and learning ability. Each cold-anesthetized animal was introduced into a metal holder and fixed to it in order to restrain all movements of the appendages apart from those of the antennae and proboscis. Each bee was then fed with 5 μl of a sucrose solution (50% w/w in water), and its median ocellus was removed to allow injection of allatostatin into the head capsule. All bees were then placed in a dark, warm (25°C) and humidified compartment for 3 hours, before the experiments began.
The vehicle for allatostatins was a saline solution made of PBS containing the protease blocker, 1 mM PMSF (prepared from a 30mM stock solution in 100% ethanol, final concentration of ethanol 3.3%).
The allatostatins were injected into the head haemolymph after penetrating the median ocellus, either 1 hour before olfactory conditioning or sucrose responsiveness assessment, or immediately after olfactory conditioning. All injections were performed under a binocular microscope. A micromanipulator-controlled Hamilton syringe (Nanofil, equipped with a NF33BV2 needle, WPI) was used to inject approximately 200 nl of peptide solution. To make sure that the solution was properly injected, it was pushed out of the syringe so that a drop was visible and then the drop was put in contact with the haemolymph where it was quickly absorbed thanks to the respiratory movements of the bee. Any bee with excessive bleeding was discarded.
Associative conditioning of the proboscis extension reflex was used to monitor effects of allatostatin treatment on appetitive olfactory learning performance. Olfactory stimuli were prepared shortly before conditioning by inserting a small piece of filter paper soaked with 4μl of pure odorant (from Sigma-Aldrich, Lyon, France) in one of the 8 channels of a custom-made, computer-driven olfactometer (P. Arrufat, Research Center on Animal Cognition, Toulouse, France). Immediately before conditioning, the integrity of the proboscis extension reflex was checked by touching both antennae with a 50% (w/w in water) sucrose solution. Olfactory conditioning of this reflexive response was carried out following a standard protocol consisting of three paired presentations of the odor (conditioned stimulus, CS) with 50% sucrose (the unconditioned stimulus, US) separated by a 10-min interval. Each trial included a familiarization phase in which the bee was placed in the conditioning set up for 13 s before forward pairing of the CS-US. The CS (1-nonanol) was delivered to the bee through an airflow for 4 s, and the US (sucrose solution) for 3 s, with a 1 s CS-US overlap. The US was presented by gently touching the antennae to elicit the PER; as soon as the bee extended its proboscis it was allowed to lick the toothpick. This sequence was controlled by the computer-driven olfactometer.
Functional data (receptor-mediated calcium, cAMP signals and binding) were plotted and regression curves were fitted using the GraphPad Prism software (San Diego, CA). The learning data were analyzed with generalized linear effects modeling (GLM) for binomial data using the R package lme4 [67]. Response levels recorded in the last conditioning trial were used to assess the effect of treatment on learning. For 1-hour memory and generalization tests, effects of allatostatin treatment were compared for each odor tested. Generalized linear mixed effects modeling (GLMM) was also used to analyze responsiveness to sucrose, with concentration and treatment as fixed factors and the bee identity and solution presented (either sucrose or water) as random factors. […] All statistics were generated in R [68].

Apime-ASTA-R = molecular target: T1, Apime-ASTA-R (Apis mellifera, UniProt A0A7M7ILT1); assay: Intracellular calcium measurement, HEK293 cells expressing Apime-ASTA-R with Gαqi9 chimeric G protein; assay type: cell-based; details: HEK293 with Gαqi9, Fig 4D
T1 sequence (A0A7M7ILT1 1-361): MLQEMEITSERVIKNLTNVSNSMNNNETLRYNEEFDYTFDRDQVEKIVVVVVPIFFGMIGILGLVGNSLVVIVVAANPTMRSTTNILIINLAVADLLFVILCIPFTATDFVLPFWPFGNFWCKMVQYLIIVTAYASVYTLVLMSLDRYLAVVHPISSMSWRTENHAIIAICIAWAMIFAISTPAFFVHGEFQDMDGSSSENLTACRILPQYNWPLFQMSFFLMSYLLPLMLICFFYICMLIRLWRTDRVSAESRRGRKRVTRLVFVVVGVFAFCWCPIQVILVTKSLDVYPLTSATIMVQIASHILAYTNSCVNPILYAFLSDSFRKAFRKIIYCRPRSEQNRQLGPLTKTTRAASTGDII
Experimental: This vector contains an ATG initiation codon in phase with a mammalian signal peptide sequence of metabotropic glutamate receptor 5 to address receptor protein to the cell membrane, with a hemagglutinin sequence (TAG HA), and MluI and HindIII restriction sites used for cloning. The coding regions of the genes of interest were PCR amplified from cDNA template. After extraction from whole brains, 1 μg of total RNA was reverse-transcribed with random primers. […] PCR reactions included: 30s at 98°C, then 30 cycles of 10s at 98°C, 30s at 60°C, 1 min at 72°C and finally, 5 minutes at 72°C. Cloning required several amplification and digestion steps to insert the full cDNA sequences in the vector.
In all cases, 2 μg of plasmid DNA encoding the Gαqi9 chimeric G protein was included to enable artificial coupling of the receptors to phospholipase C. Electroporation (250 V, 800 μF, Biorad GenePulser X-cell) was performed in a total volume of 300 μl of electroporation buffer (50 mM K2HPO4, 20 mM CH3COOK, 20 mM KOH, 26.5 mM MgSO4, pH 7.4). After electroporation, cells were resuspended in 10 ml of culture medium and split (100 μl/well) into polyornithine-coated (Sigma #P3655), black-walled, clear bottom 96-well plates (Greiner bio-one #655090) and grown for a further 48 h prior to analyzing receptor properties. All products used for cell culture were purchased from Invitrogen Life Technologies.
Cells were washed with freshly prepared 20 mM Hepes, 1 mM MgSO4, 3.3 mM Na2CO3, 1.3 mM CaCl2, 0.1% BSA, 2.5 mM probenecid in 1X Hank's balanced salt solution (Gibco #14185), pH7.4 buffer and loaded with 1 μM Ca^2+-sensitive fluorescent dye Fluo-4 AM (Invitrogen # F14202) for 1 h at 37°C. Cells were washed once and incubated with 50 μl of buffer. A plate was prepared with the various concentrations of peptides to be tested, and 50 μl of 2X concentrated-drug solution was added in each well after 20 s of recording. Fluorescence signals (excitation 485 nm, emission 525 nm) were measured by using the fluorescence microplate reader Flexstation (Molecular Devices) at sampling intervals of 1.5 s for 60 s. All represented data correspond to means ± standard deviation (SD) from experiments performed in triplicate.
This method allows detecting ligand-induced activation of the receptor by measuring the release of intracellular calcium.

[2] = 10^-6M, ASTA p<0.01, ASTC p<0.05, ASTCC p<0.001

Compound | change of conditioned responses in last conditioning trial vs vehicle (GLM coefficient ± standard error) ([1]; 10^-3M, ASTCC p<0.05) | change of conditioned responses in last conditioning trial vs vehicle (GLM coefficient ± standard error) ([1]; 10^-4M, ASTA p<0.01, ASTCC p<0.01) | change of conditioned responses in last conditioning trial vs vehicle (GLM coefficient ± standard error) [1, 2] | change of conditioned responses in last conditioning trial vs vehicle (GLM coefficient ± standard error) ([1]; 10^-7M, ASTCC p<0.001) | effect on olfactory learning performance, in words [1] | effect on olfactory learning performance, in words ([1]; listed as ASTCC) | receptor activation (calcium), in words (Apime-ASTA-R) | change of conditioned responses in last conditioning trial vs vehicle (GLM coefficient ± standard error) ([1]; 10^-5M, ASTA p<0.05, ASTC p<0.05) | effect on olfactory learning performance, in words ([1]; listed as ASTC)
CC(C)[C@@H]1NC(=O)[C@H](C)NC(=O)[C@H](CC(N)=O)NC(=O)[C@H](Cc2ccccc2)NC(=O)[C@H](Cc2ccc(O)cc2)NC(=O)[C@@H](NC(=O)[C@H](CCCNC(=N)N)NC(=O)[C@H](Cc2c[nH]c3ccccc23)NC(=O)[C@H](Cc2ccc(O)cc2)NC(=O)[C@@H](NC(=O)[C@H](CCCNC(=N)N)NC(=O)CNC(=O)[C@H](CCCCN)NC(=O)[C@H](C)NC(=O)[C@H](CCC(N)=O)NC(=O)CN)C(C)C)CSSC[C@@H](C(=O)N[C@@H](Cc2ccccc2)C(=O)O)NC(=O)[C@H]([C@@H](C)O)NC1=O [Apime-ASTCC] (H-GQAKGRVYWRCYFNAVTCF-OH; disulfide 11-18; N-terminus assumed) | -1.04±0.45 | -1.35±0.44 | -1.75±0.43 | -1.59±0.44 | the effects of each peptide were dose-dependent | apparent at much lower doses than effects of ASTC; also recorded: significant, dose-dependent (yet not linear) decrease in the percentage of bees that learned | not activated by either ASTC or ASTCC |  | 
CC(C)[C@@H]1NC(=O)[C@H](C)NC(=O)[C@H](CC(N)=O)NC(=O)[C@H](Cc2ccccc2)NC(=O)[C@H](C)NC(=O)[C@@H](NC(=O)[C@H](CCC(N)=O)NC(=O)[C@H](CCCCN)NC(=O)[C@H](Cc2c[nH]c3ccccc23)NC(=O)[C@H](Cc2ccc(O)cc2)NC(=O)[C@@H](N)CO)CSSC[C@@H](C(=O)N[C@@H](Cc2ccccc2)C(N)=O)NC(=O)[C@H](CO)NC1=O [Apime-ASTC] (H-SYWKQCAFNAVSCF-NH2; disulfide 6-13; N-terminus assumed) |  |  | -0.91±0.41 |  | the effects of each peptide were dose-dependent |  | not activated by either ASTC or ASTCC | -0.84±0.42 | significant, dose-dependent (yet not linear) decrease in the percentage of bees that learned
